Source: PubChem BioAssay (NCI)
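Growth conditions: 96-well plates. Treatment: test compound, 48 hours, 5 concentrations. Analysis: linear interpolation between bracketing concentrations; unreached endpoints set to highest concentration. Abbreviation: GI50, concentration required for 50% inhibition of growth. Definition used: TGI = concentration required for complete inhibition of growth.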

Assays:
Test in all cases: inhibition of tumour cell growth, NCI panel, 48 h
[1] = test system: CAKI-1 renal
[2] = test system: OVCAR-3 ovarian
[3] = test system: SK-OV-3 ovarian
[4] = test system: CCRF-CEM leukemia
[5] = test system: KM12 colon
[6] = test system: SK-MEL-5 melanoma
[7] = test system: MOLT-4 leukemia
[8] = test system: SR leukemia
[9] = test system: HCT-116 colon
[10] = test system: HT29 colon

Compound	GI50 [1] [µM]	TGI [1] [µM]	GI50 [2] [µM]	TGI [2] [µM]	GI50 [3] [µM]	TGI [3] [µM]	GI50 [4] [µM]	TGI [4] [µM]	GI50 [5] [µM]	TGI [5] [µM]	GI50 [6] [µM]	TGI [6] [µM]	GI50 [7] [µM]	TGI [7] [µM]	GI50 [8] [µM]	TGI [8] [µM]	GI50 [9] [µM]	TGI [9] [µM]	GI50 [10] [µM]	TGI [10] [µM]
COc1cc(NN=C(c2ccc(O)cc2)c2ccc(O)cc2)c([N+](=O)[O-])cc1[N+](=O)[O-]	13.8	26.7	1.21	14.8	16.6	30.2	1.37	> 100	4.86	25.7	6.24	20.6	6.52	> 100	10.9	> 100	9.33	21.8	10.9	25.6
CN(C)CCNC(=O)c1cccc2cc3ccccc3nc12	0.62	3.14	1.36	4.22	1.03	11	1.37	> 32.1	2.07	10.2	1.25	2.54	0.399	7.95	0.338	8.1	0.531	4.75	0.774	3.15
COC(=O)c1ccccc1NC(=O)C(=O)CC(=O)c1ccccc1NC1=CC(=O)C(=O)c2ccccc21		74.1		12.3		96.1		33.9		52.8		14.2		51.1		> 100		20		> 74.9
CS(=O)(=O)N1CCN(Cc2cc3nc(-c4cccc5[nH]ncc45)nc(N4CCOCC4)c3s2)CC1 (tested in a mixture with another compound)	0.0769	0.462	0.0615	0.586	0.0559	0.328	0.272		0.0826	0.415	0.201	0.638	0.0608		0.194		0.149		0.074	
Nc1c(C(=O)c2cccc(OCCN3CCOCC3)c2)cnn1-c1ccc(F)cc1	> 25	> 25	> 25	> 25	> 25	> 25	> 25	> 25	> 25	> 25	> 25	> 25	> 25	> 25	> 25	> 25	> 25	> 25	> 25	> 25
CC(CN)[C@@H]1CC[C@]2(CO)CC[C@]3(C)[C@H](CC[C@@H]4[C@@]5(C)CCC(NCCO)C(C)(C)[C@@H]5CC[C@]43C)[C@@H]12 (stereo not given in full)	4.12	16.6	2.1	4.6	12.5	25.2	1.99	5	1.9	4.14	1.76	3.19	1.56	4.28	1.94	4.95	1.66	3.41	1.62	3.26
CC(=O)O[C@H]1[C@@H]2[C@@H]3[C@@H](C[C@H]1C)[C@@H](C)CO[C@@]1(C)CC/C=C(/C)C[C@@H]2O[C@@H]31		> 100		> 100		> 100		> 100		> 100		> 100		> 100		> 100		> 100		> 100
Nc1nc2c(c3ncccc13)C(c1cccc(Cl)c1)Cc1ncccc1-2 (stereo not given)	3.04	51.8	1.11	4.88	2.69	23.2	2.12	48.6	0.646	15.5	1.34	14.7	2.43	50.4	0.469	14.3	1.36	14.5	0.805	10.8
C(CCc1nnc2c(n1)CCCC2)Cc1nnc2c(n1)CCCC2		> 100		> 100		> 100		> 100		> 100		> 100		> 100		> 100		> 100		> 100
CC[N+](CC)=c1ccc2nc3c(cc(NCc4ccccc4)c4ccccc43)oc-2c1	0.231	1.54	0.0951	0.557	1.12	2.32	0.476	7.15	0.292	1.32	0.147	0.28	0.346	3.17	0.27	0.999	0.154	0.709	0.189	0.773
CCOC(=O)/C=C1\SC(=Nc2ccc(C#N)cc2)N(CCN2C(=O)/C(=C/C(=O)OCC)SC2=Nc2ccc(C#N)cc2)C1=O	3.57	14.9	0.795	3.27	15.3	41.7	0.613	16.9	1.17	5.48	5.43	18.9	1.15	> 100	0.303	> 100	0.441	2.38	1.11	10.1
